According to patent publication US8822445B2, “Crystalline form of carbapenem derivative or its hydrates and preparation methods and uses thereof” (priority 2010, dated 2014):
≈ marks a conversion by molar mass, not a printed value. Entries after “also recorded” stand apart in the source; their conditions may differ.

What was measured:
[1] = Stability assay at a high temperature of 60° C. (water content, related substances, content); format: physicochemical; settings: for Content %: HPLC; for Water content %: Karl Fischer method
Method: The crystalline form I: prepared by referring to the method of example 1 in CN201010178970.2. The batch number is 20100315-4;
The crystalline form II: prepared by example 2 of the Description. The batch number is 040805.
Test condition: sampled after being placed for 5 and 10 days at a high temperature of 60° C., and the results thus obtained were compared with those obtained at day 0 by measuring water content, related substances and contents thereof. The samples were sealed with plastic bags coated with aluminium foils during the assay.
Water content determination is performed according to the first method (the Karl Fischer method) in Chinese Pharmacopoeia, 2010 edition, Appendix VIII M.
Assay is performed by using the control as the external standard according to the high performance liquid chromatography in Chinese Pharmacopoeia, 2010 edition, Appendix VD.
Apparatus: high performance liquid chromatograph (Agilent 1200 series)
Chromatographic column: Agilent C18; filler: 5 μm octadecyl silane boned silica gel; inner diameter: 4.6 mm; length of the column: 150 mm.
Column temperature: 30° C.
Mobile phase: 0.02 M diammonium phosphate (pH=5.2 adjusted by phosphoric acid): acetonitrile=100:7
Determination of related substances is performed by area normalization method according to the high performance liquid chromatography in Chinese Pharmacopoeia, 2010 edition, Appendix VD.
Chromatographic column: Agilent C18; filler: 5 μm octadecyl silane boned silica gel; inner diameter: 4.6 mm; length of column: 150 mm.
Mobile phase: A: 0.02 M diammonium phosphate (pH=5.2 adjusted by phosphoric acid): acetonitrile=95:5.
B: 0.02 M diammonium phosphate (pH=5.2 adjusted by phosphoric acid): acetonitrile=30:70.
Gradient condition: see Table 1 below.

Haemophilus influenzae = experiment: Antibacterial activity assay, standard agar double dilution method, clinically isolated strains; format: cell-based; settings: Haemophilus influenzae clinical isolates
Description: (§1) Test strains: the following clinically isolated strains were provided by public organizations.
(§2) Gram-positive bacteria: methicillin sensitive Staphylococcus aureus (MSSA), and penicillin sensitive Streptococcus pneumoniae;
(§3) Gram-negative bacteria: ESBLs negative Escherichia coli, ESBLs positive Escherichia coli, Haemophilus influenzae, and Moraxelle catarrhalis.
(§4) Test compound: the crystalline form II of compound A
(§5) Experimental method: standard agar double dilution method was adopted.

[2] = system: ESBLs negative Escherichia coli; experiment: as above; format: cell-based; settings: ESBLs negative Escherichia coli clinical isolates
Description: as §1, §2, §3, §4, §5

[3] = system: ESBLs positive Escherichia coli; experiment: as above; format: cell-based; settings: ESBLs positive Escherichia coli clinical isolates
Description: as §1, §2, §3, §4, §5

[4] = system: methicillin sensitive Staphylococcus aureus (MSSA); experiment: as above; format: cell-based; settings: MSSA clinical isolates
Description: as §1, §2, §3, §4, §5

Moraxelle catarrhalis = experiment: as above; format: cell-based; settings: Moraxelle catarrhalis clinical isolates
Description: as §1, §2, §3, §4, §5

[5] = system: penicillin sensitive Streptococcus pneumoniae; experiment: as above; format: cell-based; settings: Penicillin sensitive Streptococcus pneumoniae clinical isolates
Description: as §1, §2, §3, §4, §5

[6] = system: Gram-positive and Gram-negative bacteria; experiment: Antibacterial activity assay, overall conclusion; format: cell-based; settings: clinically isolated strains
Description: as §1, §2, §3, §4, §5

[7] = 5 days at 60° C. as compared with day 0
[8] = 10 days at 60° C. as compared with day 0

Compound	Decrease in content % [1, 7]	Decrease in water content % [1, 7]	Increase open ring % [1, 7]	Increase total % [1, 7]	Related substance % Total % ([1]; 5 days at 60° C., sealed)	Related substance % open ring % ([1]; 5 days at 60° C., sealed)	Content % ([1]; 5 days at 60° C.)	Water content % ([1]; 5 days at 60° C.)	Decrease in content % [1, 8]	Decrease in water content % [1, 8]	Increase open ring % [1, 8]	Increase total % [1, 8]	Related substance % Total % ([1]; 10 days at 60° C., sealed)	Related substance % open ring % ([1]; 10 days at 60° C., sealed)	Content % ([1]; 10 days at 60° C.)	Water content % ([1]; 10 days at 60° C.)	Related substance % Total % ([1]; day 0)	Related substance % open ring % ([1]; day 0)	Content % ([1]; day 0)	Water content % ([1]; day 0)	other results
C[C@@H](O)[C@H]1C(=O)N2C(C(=O)O)=C(S[C@@H]3CN[C@H](C(=O)NCc4ccc(S(N)(=O)=O)cc4)C3)[C@H](C)[C@H]12 [crystalline form I, (4R,5S,6S)-6-((R)-1-hydroxyethyl)-4-methyl-7-oxo-3-(((3S,5S)-5-((4-sulfamoylbenzyl)carbamoyl)pyrrolidin-3-yl)thio)-1-azabicyclo[3.2.0]hept-2-ene-2-carboxylic acid]	3.73%	0.183%	0.646%	0.841%	2.550%	0.782%	96.27%	7.701%	3.95%	0.665%	0.984%	1.167%	2.876%	1.120%	96.05%	7.219%	1.709%	0.136%	100%	7.884%	
C[C@@H](O)[C@H]1C(=O)N2C(C(=O)O)=C(S[C@@H]3CN[C@H](C(=O)NCc4ccc(S(N)(=O)=O)cc4)C3)[C@H](C)[C@H]12 [crystalline form II, (4R,5S,6S)-6-((R)-1-hydroxyethyl)-4-methyl-7-oxo-3-(((3S,5S)-5-((4-sulfamoylbenzyl)carbamoyl)pyrrolidin-3-yl)thio)-1-azabicyclo[3.2.0]hept-2-ene-2-carboxylic acid]	1.57%	0.026%	0.632%	0.527%	1.573%	0.789%	98.43%	8.290%	2.24%	0.402%	0.944%	0.853%	1.899%	1.101%	97.76%	7.914%	1.046%	0.157%	100%	8.316%	MIC90 (Haemophilus influenzae): 0.125 µg/mL (≈ 0.238 µM); MICmode (Haemophilus influenzae): 0.062 mg/L; MIC90 [2]: 0.016 µg/mL (≈ 0.0305 µM); MICmode [2]: 0.016 mg/L; MIC90 [3]: 0.25 µg/mL (≈ 0.477 µM); MICmode [3]: 0.016 mg/L; MICmode [4]: 0.062 mg/L; MIC90 ([4]; Staphylococcus aureus): 0.062 µg/mL (≈ 0.118 µM); MIC90 (Moraxelle catarrhalis): 8 ng/mL (≈ 0.0152 µM); MICmode (Moraxelle catarrhalis): 0.004 mg/L; MIC90 [5]: 0.031 µg/mL (≈ 0.0591 µM); MICmode [5]: 0.008 mg/L; stability as compared with the crystalline form I ([1]; 5 and 10 days at 60° C.): superior stability; also recorded: better than that of the crystalline form I; antibacterial activity [6]: excellent antibacterial activity against both Gram-positive and Gram-negative bacteria
